This is an account of results in patent publication EP4752140A1, “SPIROCYCLICALKENYL OR AZAALKENYL COMPOUND, AND PHARMACEUTICAL COMPOSITION THEREOF, PREPARATION METHOD THEREFOR AND USE THEREOF” (Shanghai Meiyue Biotech Development Co., Ltd., priority 2023, dated 2025).

Data set [1] can be described thus: Single-dose PK study in rats. The class given is in vivo. Conditions: male SD rats, oral gavage 3 mg/kg, plasma; for half-life: read-out: Half-life T1/2 (converted); for Cmax: read-out: Maximum plasma concentration Cmax. On the procedure:
(§1) Male SD rats (Shanghai Bikai Keyi Biotechnology Co. Ltd.) aged 6 to 9 weeks were fasted overnight. Three […] per group were administered the test compounds by oral gavage at a dosing volume of 10 mL/kg. Blood samples (0.2 mL per time point) were collected via the jugular vein into EDTA-K2 anticoagulant tubes and immediately centrifuged at 4000 rpm for 5 minutes at 4°C. The supernatants were collected. Blood samples were collected at the following time points: 15 minutes, 30 minutes, 1 hour, 2 hours, 4 hours, 7 hours, and 24 hours. The animals were continuously monitored for general condition after dosing. After completion of blood collection at all time points, the animals were euthanized. Plasma samples were analyzed by LC-MS/MS, and pharmacokinetic parameters were calculated using WinNonlin software.

Another data set deals with normal human serum (NHS). The data set can be described thus: Complement-mediated hemolytic activity assay. Format: cell-based. Particulars: Erythrocyte, lysis of rabbit erythrocytes (RE) by NHS, GVB0 buffer with 10 mM Mg-EGTA, 37°C, read-out: Hemolysis IC50. On the procedure: The hemolysis assay was performed with reference to the method described in Xuan Yuan et al., Haematologica. (2017) 102: 466-475. Prior to the assay, the optimal concentration of normal human serum (NHS) required to achieve 100% lysis of rabbit erythrocytes (RE) was determined by titration. In this assay, NHS (collected from healthy volunteers) was diluted in GVB^0 buffer containing 10 mM Mg-EGTA (0.1% gelatin, 5 mM Veronal, 145 mM NaCl, 0.025% NaN3, pH 7.3, Complement Technology) and incubated with various concentrations of test compounds at 37°C for 15 minutes. RE (collected from healthy Japanese white rabbits), freshly suspended in GVB^0 buffer containing 10 mM Mg-EGTA, were then added to achieve a final concentration of 1 × 10^8 cells/mL and incubated at 37°C for 30 minutes. The positive control group (100% lysis) consisted of GVB^0 buffer containing 10 mM Mg-EGTA with NHS and RE but without test compounds. The negative control group (0% lysis) consisted of GVB^0 buffer containing 10 mM Mg-EGTA with inactivated NHS (heated at 56°C for 30 minutes or 65°C for 5 minutes) and RE but without test compounds. After centrifugation of the samples at 2000 g for 5 minutes, the supernatant was collected. Absorbance at 415 nm (A415) was measured using a microplate reader (Molecular Devices, SpectraMax i3X). IC50 values were calculated by nonlinear regression from the percentage of hemolysis as a function of test compound concentration.

Data set [2] relates to Alternative Pathway of the Human Serum Complement System. The data set can be described thus: Inhibitory effect on the alternative pathway of the human serum complement system (Wieslab kit). Format: biochemical. Conditions: complement activity, OD405, LPS-coated plate. On the procedure: Test compounds were evaluated starting at a concentration of 10 µM, with 3-fold serial dilutions across 8 concentration points. The final concentration of DMSO was 0.1%, and all measurements were performed in duplicate. A vial of human serum (Complement Technology, NHS) was removed from a -80°C ultra-low temperature freezer and allowed to thaw completely on ice. […] The plate was gently mixed on a microplate thermoshaker and incubated at room temperature for 15 minutes. Subsequently, 100 µL of the above mixture was carefully transferred to the pre-coated (LPS-containing) plate provided in the kit (WIESLAB® Complement System Alternative Pathway, AP330RUO). Additionally, 100 µL of Diluent AP was used as a blank control to avoid bubble formation. The plate was incubated at 37°C for 65 minutes. After incubation, the liquid in the wells was discarded, and the plate was washed with 1× wash buffer (300 µL/well) four times, with the liquid being removed as thoroughly as possible from the plate after the final wash. 100 µL of conjugate was added to each well, and the plate was incubated at room temperature (20 to 25°C) for 30 minutes, followed by repetition of the washing step. 100 µL of substrate solution was then added to each well, and the plate was incubated at room temperature (20 to 25°C) for 30 minutes in the dark. The OD405 value was read immediately, or the reaction was terminated by addition of 5 mM EDTA, and the OD405 value was read within 60 minutes. Complement activity was calculated according to the formula: % complement activity = (Sample - NC) / (PC - NC) × 100, and data analysis was performed.

A short description of data set [3]: Single-dose PK study in mice. Particulars: mouse, in vivo, male ICR mice, oral gavage 10 mg/kg, plasma. On the procedure: as §1, with “ICR mice” for “SD rats”, “Co.,” for “Co.”, “weighing approximately 25 g” for “aged 6 to 9 weeks”, “(30 µL” for “(0.2 mL”, “orbital sinus” for “jugular vein”
The mark [4] stands for this setting: rat, in vivo, read-out: Area under the curve AUC0-24h.
Where [5] appears, read: rat, read-out: Area under the curve AUC0-24h.

In general, pIC50 refers to −log10 of the IC50, conventionally taken in molar units.

pIC50: −log10 of the molar value.

With `COc1cc([C@@H]2C[C@@H](C=C(F)F)CCN2Cc2c(OC)cc(C)c3[nH]ccc23)ccc1C(=O)O` [Compound 36-P1], the AUC(0-t) at 24 h in data set [1] (setting [4]) is 4500 ng·h/mL. In addition, in data set [1] (rat, in vivo), the half-life was 8.29 h and the Cmax was determined as 667 ng/mL. Also, the negative-log IC50 (pIC50) in the data set with normal human serum (NHS) was 7.36.
In the case of `[2H]C([2H])([2H])Oc1cc(C)c2[nH]ccc2c1CN1CC[C@H](C=C(F)F)C[C@H]1c1ccc(C(=O)O)cc1` [Compound 39-P1], the AUC(0-t) at 24 h in data set [1] (setting [5]) amounted to 13300 ng·h/mL. Also, in data set [1] (rat), the half-life was 9.44 h and the Cmax stood at 1280 ng/mL. Besides, the pIC50 in the data set on normal human serum (NHS) was 6.95.
Consider `COc1cc(C)c2[nH]ccc2c1CN1CC[C@H](C=C2CC2)C[C@H]1c1ccc(C(=O)O)cc1` [Compound 41-P1], for which the pIC50 with normal human serum (NHS) was 7.46.
Consider `CCO[C@H]1CCN(Cc2c(OC)cc(C)c3[nH]ccc23)[C@H](c2ccc(C(=O)O)cc2)C1` [Comparative Example 1, reference compound], for which, in data set [1], the “Clearance CL” value was 13.549 mL/min/kg. Besides, the AUC(0-t) in data set [1] (setting [5]) came out at 3660 ng·h/mL. Further, in data set [1] (rat), the half-life was 3.38 h and the Cmax was found to be 714 ng/mL.
Consider `COc1cc(C)c2[nH]ccc2c1CN1CCC2(CC(=C(F)F)C2)C[C@H]1c1ccc(C(=O)O)cc1` (some centres unmarked) [Compound 1], for which the negative logarithm of the IC50 (pIC50) is 7.27 in data set [2] and 7.06 with normal human serum (NHS). Besides, the AUC(0-t) at 24 h in data set [1] (setting [4]) turned out to be 8320 ng·h/mL; in data set [3] (read-out: Area under the curve AUC0-24h) it was 9230 ng·h/mL. Moreover, the half-life in data set [1] (rat, in vivo) is 11.3 h; in data set [3] (read-out: Half-life T1/2 (converted)), 13.1 h. The Cmax in data set [1] (rat, in vivo) came to 720 ng/mL; in data set [3] (read-out: Maximum plasma concentration Cmax), 1530 ng/mL.
With `COc1cc(C)c2[nH]ccc2c1CN1CC[C@H](C=C(F)F)C[C@H]1c1ccc(C(=O)O)cc1C` (single isomer, unassigned) [Compound 33-P1], the pIC50 in data set [2] is 7.30; with normal human serum (NHS) it was 7.08. Besides, the AUC(0-t) at 24 h in data set [1] (setting [4]) was found to be 10700 ng·h/mL. Also, in data set [1] (rat, in vivo), the half-life was 11.2 h. In addition, the Cmax in data set [1] (rat, in vivo) was 1240 ng/mL.
`COc1cc(C)c2[nH]ccc2c1CN1CC[C@H](C=C(F)F)C[C@H]1c1ccc(C(=O)O)c(O)c1` [Compound 40-P1]: the pIC50 in the data set on normal human serum (NHS) was 7.66.
Same read-out and setting: then `COc1cc(C)c2[nH]ccc2c1CN1CC[C@H](C=C(F)F)C[C@H]1c1ccc(C(=O)O)c(Cl)c1` [Compound 35-P1], with 7.21.
On the same count and under the same terms, then `Cc1cc(C2CC2)c(CN2CC[C@H](C=C(F)F)C[C@H]2c2ccc(C(=O)O)cc2)c2cc[nH]c12` [Compound 60-P1], with 6.94; and `COc1cc(C)c2[nH]ccc2c1CN1CCC(C=C(F)F)C[C@H]1c1ccc(C(=O)O)cc1Cl` (some centres unmarked) [Compound 34-1], with 7.21.
Consider `COc1cc(Cl)c2[nH]ccc2c1CN1CC[C@H](C=C(F)F)C[C@H]1c1ccc(C(=O)O)cc1` [Compound 38-P1], for which the pIC50 in the data set on normal human serum (NHS) is 6.86.
Same read-out and setting: the value for `COc1cc(C)c2[nH]ccc2c1CN1CCC(=C(F)F)C[C@H]1c1ccc(C(=O)O)cc1` [Compound 19] was 5.55.
Turning to `Cc1cc(C)c2[nH]ccc2c1CN1CC[C@H](C=C(F)F)C[C@H]1c1ccc(C(=O)O)cc1` [Compound 37-P1], the pIC50 in the data set with normal human serum (NHS) was 7.68.
As for `COc1cc(C)c2[nH]ccc2c1CN1CC[C@H](C=C(F)F)C[C@H]1c1ccc(C(=O)O)cc1` [Compound 32-P1], the pIC50 in data set [2] was 7.33. For the same compound, the AUC(0-t) at 24 h in data set [1] (setting [5]) was 17600 ng·h/mL. Besides, in data set [1] (rat), the half-life is 13.2 h and the Cmax came to 1290 ng/mL. Besides, the pIC50 in the data set on normal human serum (NHS) was 7.03.
